Experimental data taken from patent US12594282B2, “Use of small molecule compounds in the treatment of diseases mediated by lung epithelial cell injury and/or vascular endothelial cell injury” (Guangzhou Cellprotek Pharmaceutical Co., Ltd., priority 2020, dated 2026).

Tests used:
NR4A3 mRNA = NR4A3 mRNA under OGD-R, RAOEC (real-time fluorescent quantitative PCR); type: cell-based, rat; details: 10 μM given at restoration
Experimental: (§1) HUVEC cells were cultured in modified DMEM medium containing 10% fetal bovine serum. When the cells reached about 80% confluence, the cells were digested with 0.25% trypsin, and then pipetted evenly with modified DMEM containing 10% […]. The cell concentration was adjusted to 1×10^5 cells/mL, and the cells were seeded at 400 uL/well in a 24-well plate, and the experiment was carried out when the cells grew to about 70% confluence. RAOEC cells were cultured in high-glucose DMEM medium containing 10% fetal bovine serum, and the seeding conditions were the same as those of HUVEC. During the OGD-R injury treatment, the hypoxia workstation was set to have an oxygen concentration of 1% (1% O2, 5% CO2, 94% N2), a temperature of 37° C., and a humidity of 85%. A sugar-free DMEM medium was placed in the hypoxia workstation for pre-hypoxia for 3 hours. The medium in the culture plate was aspirated, and the plate was washed twice with preheated sugar-free DMEM medium, and 100 uL of sugar-free DMEM medium was added to each well. The culture plate was placed in the hypoxia workstation, and 300 uL of pre-hypoxic sugar-free DMEM medium was added to each well, and then the culture plate was placed in the hypoxia workstation for additional hypoxia for 4 hours. Restoration was then performed. […]

NR4A3 = NR4A3 ubiquitination after OGD-R in vascular endothelial cells (immunoprecipitation with anti-ubiquitin antibodies); type: cell-based
Experimental: as §1, with “performed. The culture plate was taken out, and the sugar-free DMEM medium was replaced with 400 uL of normal medium containing 10% fetal bovine serum, and then the plate was placed in a 37° C. 5% CO2 cell incubator for culturing for 24 hours or a specified time period. For the cells in the normal group, it was only replaced with 400 uL of new normal medium containing 10% fetal bovine serum.” for “performed.”
The cells were washed twice with pre-cooled PBS, then scraped off with a cell scraper and transferred to a 1.5 mL centrifuge tube, and centrifugation was performed at 4° C. and 1000 g for 5 minutes. […] Each protein sample was then quantified using the BCA protein quantification kit. After protein quantification, IP lysis buffer was used to adjust the protein concentration of each sample to 1 mg/mL. […]

## C[C@@]12CCCC1C1C[C@@H](O)[C@]3(O)C[C@@H](O)CC[C@]3(C)C1CC2 (stereo partly drawn) [YC-6, 5α-androst-3β,5,6β-triol]
NR4A3 mRNA
  transcription level of NR4A3 (relative mRNA expression): did not significantly up-regulate the transcription level of NR4A3
NR4A3; YC-6 10 μM with MG132 100 nM after restoration
  ubiquitination of NR4A3 on co-administration with MG132: did not significantly increase the ubiquitination of NR4A3
NR4A3; YC-6 10 μM, MG132 100 nM, given at restoration
  ubiquitination modification of NR4A3 induced by restoration: could inhibit the ubiquitination of NR4A3 induced by restoration
